Results: patent US10166216B2 (Rigel Pharmaceuticals, Inc., priority 2006, dated 2019)

Target: Axl (Homo sapiens (Human), UniProt P30530)
Test: Phospho-Akt in-cell Western assay (Axl-antibody cross-linking stimulation)
Format: cell-based
Details: inhibition of Axl activity, phospho-Akt in-cell Western assay
Summary of the method: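 HeLa cells on poly-L-lysine, starved 24 hrs with Axl/Fc, pre-treated with compound 1 hr at 37° C., then stimulated 5 min with Axl primary/secondary antibody cluster. Fixed cells probed for phospho-Akt by chemiluminescent in-cell Western; signal normalized to crystal violet cell number.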

Axl, sequence (P30530 26-894): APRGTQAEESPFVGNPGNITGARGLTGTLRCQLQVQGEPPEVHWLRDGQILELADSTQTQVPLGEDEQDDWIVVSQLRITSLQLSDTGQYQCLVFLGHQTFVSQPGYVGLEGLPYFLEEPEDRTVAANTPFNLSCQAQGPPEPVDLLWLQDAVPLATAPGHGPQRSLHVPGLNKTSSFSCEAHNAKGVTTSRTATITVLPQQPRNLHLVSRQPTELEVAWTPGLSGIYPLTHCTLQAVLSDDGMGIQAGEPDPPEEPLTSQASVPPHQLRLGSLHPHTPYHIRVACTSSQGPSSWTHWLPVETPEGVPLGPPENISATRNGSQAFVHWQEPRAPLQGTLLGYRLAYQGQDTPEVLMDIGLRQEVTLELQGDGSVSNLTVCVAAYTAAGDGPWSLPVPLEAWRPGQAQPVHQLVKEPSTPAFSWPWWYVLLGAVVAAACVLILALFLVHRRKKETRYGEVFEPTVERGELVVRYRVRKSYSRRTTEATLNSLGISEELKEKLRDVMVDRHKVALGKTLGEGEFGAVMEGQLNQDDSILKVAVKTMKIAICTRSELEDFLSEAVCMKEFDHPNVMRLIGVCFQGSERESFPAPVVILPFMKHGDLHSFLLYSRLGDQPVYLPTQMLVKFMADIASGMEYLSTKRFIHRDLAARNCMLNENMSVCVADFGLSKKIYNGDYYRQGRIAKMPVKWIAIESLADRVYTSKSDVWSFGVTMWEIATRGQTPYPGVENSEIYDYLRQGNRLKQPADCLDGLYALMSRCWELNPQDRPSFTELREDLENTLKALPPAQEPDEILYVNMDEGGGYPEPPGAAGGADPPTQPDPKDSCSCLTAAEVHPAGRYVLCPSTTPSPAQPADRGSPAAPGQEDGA

SMILES	IC50
COc1cc2c(-n3nc(Nc4ccc(N5CCN(C6CC7CCC6C7)CC5)c(F)c4)nc3N)ncnc2cc1O (stereo not drawn) [Compound 106, 4-(5-amino-3-(4-(4-(bicyclo[2.2.1]heptan-2-yl)piperazin-1-yl)-3-fluorophenylamino)-1H-1,2,4-triazol-1-yl)-6-methoxyquinazolin-7-ol]	< 1 µM
COc1cc2ncnc(-n3nc(Nc4ccc(N5CCN(C(C)=O)CC5)cc4)nc3N)c2cc1OC [Compound 107, 1-(4-(4-(5-amino-1-(6,7-dimethoxyquinazolin-4-yl)-1H-1,2,4-triazol-3-ylamino)phenyl)piperazin-1-yl)ethanone]	< 1 µM
CN1CCN(c2ccc(Nc3nc(N)n(-c4cc5c(nn4)-c4ccccc4CC5)n3)cc2)CC1 [Compound 108, 1-(5,6-dihydrobenzo[h]cinnolin-3-yl)-N^3-(4-(4-methylpiperazin-1-yl)phenyl)-1H-1,2,4-triazole-3,5-diamine]	< 1 µM
COc1cc2ncnc(-n3nc(Nc4ccc(N5CCN(C6C7CC8CC(C7)CC6C8)CC5)cc4)nc3N)c2cc1OC (stereo not drawn) [Compound 111]	> 20 µM
CN1CCN(c2ccc(Nc3nc(N)n(-c4nccc5[nH]c(=O)ccc45)n3)cc2F)CC1 [Compound 113, 5-(5-amino-3-(3-fluoro-4-(4-methylpiperazin-1-yl)phenylamino)-1H-1,2,4-triazol-1-yl)-1,6-naphthyridin-2(1H)-one]	< 1 µM
Nc1nc(Nc2ccc(N3CCN(C4CCCCC4)CC3)cc2)nn1-c1cc2c(nn1)-c1ccccc1CC2 [Compound 115, N^3-(4-(4-cyclohexylpiperazin-1-yl)phenyl)-1-(5,6-dihydrobenzo[h]cinnolin-3-yl)-1H-1,2,4-triazole-3,5-diamine]	1 to 10 µM
CN1CCN(c2ccc(Nc3nc(N)n(-c4ncnc5cc(O)c(O)cc45)n3)cc2F)CC1 [Compound 116, 4-(5-amino-3-(3-fluoro-4-(4-methylpiperazin-1-yl)phenylamino)-1H-1,2,4-triazol-1-yl)quinaoline-6,7-diol]	1 to 10 µM
COc1cc2c(-n3nc(Nc4ccc(N5CCN(C)CC5)c(F)c4)nc3N)ncnc2cc1O [Compound 117, 4-(5-amino-3-(3-fluoro-4-(4-methylpiperazin-1-yl)phenylamino)-1H-1,2,4-triazol-1-yl)-6-methoxyquinazolin-7-ol]	< 1 µM
COc1cc2ncnc(-n3nc(Nc4ccc(N5CCN(C6C7CCCC6CCC7)CC5)cc4)nc3N)c2cc1OC (stereo not drawn) [Compound 118, N^3-(4-(4-(bicyclo[3.3.1]nonan-9-yl)piperazin-1-yl)phenyl)-1-(6,7-dimethoxyquinazolin-4-yl)-1H-1,2,4-triazole-3,5-diamine]	1 to 10 µM
COc1cc2ccnc(-n3nc(Nc4ccc(N5CCN(C6CC7CCC6C7)CC5)cc4)nc3N)c2cc1OC (stereo not drawn) [Compound 125, N^3-(4-(4-(bicyclo[2.2.1]heptan-2-yl)piperazin-1-yl)phenyl)-1-(6,7-dimethoxyisoquinolin-1-yl)-1H-1,2,4-triazole-3,5-diamine]	< 1 µM
Nc1nc(Nc2ccc(N3CCN(C4CC5CCC4C5)CC3)cc2)nn1-c1ncnc2sccc12 (stereo not drawn) [Compound 127, N^3-(4-(4-(bicyclo[2.2.1]heptan-2-yl)piperazin-1-yl)phenyl)-1-(thieno[2,3-d]pyrimidin-4-yl)-1H-1,2,4-triazole-3,5-diamine]	< 1 µM
Nc1nc(Nc2ccc(N3CCN(C4CC5CCC4C5)CC3)cc2)nn1-c1ncnc2ccsc12 (stereo not drawn) [Compound 128, N^3-(4-(4-(bicyclo[2.2.1]heptan-2-yl)piperazin-1-yl)phenyl)-1-(thieno[3,2-d]pyrimidin-4-yl)-1H-1,2,4-triazole-3,5-diamine]	< 1 µM
Nc1nc(Nc2ccc(N3CCN(C4CC5CCC4C5)CC3)cc2)nn1-c1ncnc2cc(-c3ccccc3)sc12 (stereo not drawn) [Compound 129, N^3-(4-(4-(bicyclo[2.2.1]heptan-2-yl)piperazin-1-yl)phenyl)-1-(6-phenylthieno[3,2-d]pyrimidin-4-yl)-1H-1,2,4-triazole-3,5-diamine]	1 to 10 µM

The next lines start with the values.

IC50	SMILES
< 1 µM	COc1cc2c(-n3nc(Nc4ccc(N5CCN(C6CCCCCC6)CC5)cc4)nc3N)ncnc2cc1O [Compound 109, 4-(5-amino-3-(4-(4-cycloheptylpiperazin-1-yl)phenylamino)-1H-1,2,4-triazol-1-yl)-6-methoxyquinazolin-7-ol]
< 1 µM	COc1cc2ncnc(-n3nc(Nc4ccc(N5CCN(C6CCCCCC6)CC5)cc4)nc3N)c2cc1OC [Compound 110, N^3-(4-(4-cycloheptylpiperazin-1-yl)phenyl)-1-(6,7-dimethoxyquinazolin-4-yl)-1H-1,2,4-triazole-3,5-diamine]
> 20 µM	COc1cc2ncnc(-n3nc(Nc4ccc(N5CCN(C6CCCCCCC6)CC5)cc4)nc3N)c2cc1OC [Compound 112, N^3-(4-(4-cyclooctylpiperazin-1-yl)phenyl)-1-(6,7-dimethoxyquinazolin-4-yl)-1H-1,2,4-triazole-3,5-diamine]
< 1 µM	COc1cc2ncnc(-n3nc(Nc4ccc(N5CCN(C6CCCCC6)CC5)c(Cl)c4)nc3N)c2cc1OC [Compound 114, N^3-(3-chloro-4-(4-cyclohexylpiperazin-1-yl)phenyl)-1-(6,7-dimethoxyquinazolin-4-yl)-1H-1,2,4-triazole-3,5-diamine]
1 to 10 µM	CCN1CCN(c2cc(Nc3nc(N)n(-c4ncnc5cc(OC)c(OC)cc45)n3)ccc2Cl)CC1 [Compound 119, N-(4-chloro-3-(4-ethylpiperazin-1-yl)phenyl)-1-(6,7-dimethoxyquinazolin-4-yl)-1H-1,2,4-triazole-3,5-diamine]
> 20 µM	COc1cc2ncnc(-n3nc(Nc4ccc(Cl)c(N5CCN(C(C)=O)CC5)c4)nc3N)c2cc1OC [Compound 120, 1-(4-(5-(5-amino-1-(6,7-dimethoxyquinazolin-4-yl)-1H-1,2,4-triazol-3-ylamino)-2-chlorophenyl)piperazin-1-yl)ethanone]
1 to 10 µM	COc1cc2ncnc(-n3nc(Nc4ccc(N5CCN(C)CC5)c(C(N)=O)c4)nc3N)c2cc1OC [Compound 121, 5-(5-amino-1-(6,7-dimethoxyquinazolin-4-yl)-1H-1,2,4-triazol-3-ylamino)-2-(4-methylpiperazin-1-yl)benzamide]
< 1 µM	COc1cc2ncnc(-n3nc(Nc4ccc(N5CCN(C6CCCCC6)CC5)c(F)c4)nc3N)c2cc1OC [Compound 122, N^3-(4-(4-cyclohexylpiperazin-1-yl)-3-fluorophenyl)-1-(6,7-dimethoxyquinazolin-4-yl)-1H-1,2,4-triazole-3,5-diamine]
> 20 µM	COc1cc2ncnc(-n3nc(Nc4ccc(N5CCN(C6CC7CCC6C7)CC5)c(F)c4)nc3N)c2cc1OC (stereo not drawn) [Compound 123, N^3-(4-(4-(bicyclo[2.2.1]heptan-2-yl)piperazin-1-yl)-3-fluorophenyl)-1-(6,7-dimethoxyquinazolin-4-yl)-1H-1,2,4-triazole-3,5-diamine]
> 20 µM	COc1cc2ncnc(-n3nc(Nc4ccc(N5CCN(C6CC7CCCC76)CC5)cc4)nc3N)c2cc1OC (stereo not drawn) [Compound 124, N^3-(4-(4-(bicyclo[3.2.0]heptan-6-yl)piperazin-1-yl)phenyl)-1-(6,7-dimethoxyquinazolin-4-yl)-1H-1,2,4-triazole-3,5-diamine]
< 1 µM	COc1cc2ccnc(-n3nc(Nc4ccc(N5CCN(C6CCCCCC6)CC5)cc4)nc3N)c2cc1OC [Compound 126, N^3-(4-(4-cycloheptylpiperazin-1-yl)phenyl)-1-(6,7-dimethoxyisoquinolin-1-yl)-1H-1,2,4-triazole-3,5-diamine]
